A short description of series [1]: Bulk density of the dried/homogenized Compound batches. In kind it is physicochemical. Conditions: reworked (dried, homogenized) drug substance batch.
Series [2] in a line: Water sorption (dynamic vapor sorption), water-uptake. The format is physicochemical. Conditions: 25° C., 90% relative humidity for 6 hours under humid nitrogen purge. The method, then:
Water sorption isotherms can be determined using a dynamic vapor sorption system (Advantage, DVS, London, UK). The samples are subjected to 0 to 90% relative humidity (RH) stepwise with a step size of 10% at 25° C. Each sample is equilibrated at each RH step for at least 60 min, and equilibrium is assumed if weight increase is less than 0.1% within one minute, and the maximum duration on each RH is 6 hours. Therefore, each sample is held at a given RH for 1 to 6 hours depending on how fast the equilibrium is reached.

The results in this text go back to patent publication US12275722B2, “Process of reworking a crystalline form of a glycine transport inhibitor” (Boehringer Ingelheim International GmbH, priority 2020, dated 2025).

Turning to `C[C@@H](Oc1ccc(S(C)(=O)=O)cc1C(=O)N1C[C@@H]2C[C@]2(c2cc(C(F)(F)F)on2)C1)C(F)(F)F` [Batch 18107], the “Bulk density” value in series [1] (listed as 18107) is given as 0.14 g/mL.
In the case of `C[C@@H](Oc1ccc(S(C)(=O)=O)cc1C(=O)N1C[C@@H]2C[C@]2(c2cc(C(F)(F)F)on2)C1)C(F)(F)F` [Batch 1099104], the “Bulk density” value in series [1] (listed as 9104) came out at 0.15 g/mL.
As for `C[C@@H](Oc1ccc(S(C)(=O)=O)cc1C(=O)N1C[C@@H]2C[C@]2(c2cc(C(F)(F)F)on2)C1)C(F)(F)F` [Batch 1099103], the “Bulk density” value in series [1] (listed as 9103) worked out at 0.15 g/mL.
Regarding `C[C@@H](Oc1ccc(S(C)(=O)=O)cc1C(=O)N1C[C@@H]2C[C@]2(c2cc(C(F)(F)F)on2)C1)C(F)(F)F` [Batch 1TA], the “Bulk density” value in series [1] (listed as 1TA) came to 0.17 g/mL.
Consider `C[C@@H](Oc1ccc(S(C)(=O)=O)cc1C(=O)N1C[C@@H]2C[C@]2(c2cc(C(F)(F)F)on2)C1)C(F)(F)F` [Batch 2TA], for which, in series [1] (listed as 2TA), the “Bulk density” value stood at 0.17 g/mL.
With `C[C@@H](Oc1ccc(S(C)(=O)=O)cc1C(=O)N1C[C@@H]2C[C@]2(c2cc(C(F)(F)F)on2)C1)C(F)(F)F` [Batch 6], the “Bulk density” value in series [1] (listed as 6) was found to be 0.15 g/mL.
On to `C[C@@H](Oc1ccc(S(C)(=O)=O)cc1C(=O)N1C[C@@H]2C[C@]2(c2cc(C(F)(F)F)on2)C1)C(F)(F)F` [Batch 4TB], for which the “Bulk density” value in series [1] (listed as 4TB) is 0.17 g/mL.
As to `C[C@@H](Oc1ccc(S(C)(=O)=O)cc1C(=O)N1C[C@@H]2C[C@]2(c2cc(C(F)(F)F)on2)C1)C(F)(F)F` [Batch 1098942], the “Bulk density” value in series [1] (listed as 8942) is listed as 0.16 g/mL.
`C[C@@H](Oc1ccc(S(C)(=O)=O)cc1C(=O)N1C[C@@H]2C[C@]2(c2cc(C(F)(F)F)on2)C1)C(F)(F)F` [Batch 5]: in series [1] (listed as 5), the “Bulk density” value is 0.14 g/mL.
For `C[C@@H](Oc1ccc(S(C)(=O)=O)cc1C(=O)N1C[C@@H]2C[C@]2(c2cc(C(F)(F)F)on2)C1)C(F)(F)F` [Batch 1099102], in series [1] (listed as 9102), the “Bulk density” value turned out to be 0.15 g/mL.
Consider `C[C@@H](Oc1ccc(S(C)(=O)=O)cc1C(=O)N1C[C@@H]2C[C@]2(c2cc(C(F)(F)F)on2)C1)C(F)(F)F` [Batch 1098943], for which the “Bulk density” value in series [1] (listed as 8943) amounted to 0.14 g/mL.
Regarding `C[C@@H](Oc1ccc(S(C)(=O)=O)cc1C(=O)N1C[C@@H]2C[C@]2(c2cc(C(F)(F)F)on2)C1)C(F)(F)F` [Batch 4TA], in series [1] (listed as 4TA), the “Bulk density” value stood at 0.22 g/mL.
In the case of `C[C@@H](Oc1ccc(S(C)(=O)=O)cc1C(=O)N1C[C@@H]2C[C@]2(c2cc(C(F)(F)F)on2)C1)C(F)(F)F` [Batch 1TB], the “Bulk density” value in series [1] (listed as 1TB) is listed as 0.16 g/mL.
As to `C[C@@H](Oc1ccc(S(C)(=O)=O)cc1C(=O)N1C[C@@H]2C[C@]2(c2cc(C(F)(F)F)on2)C1)C(F)(F)F` [Batch 1098954], the “Bulk density” value in series [1] (listed as 8954) came out at 0.15 g/mL.
As for `C[C@@H](Oc1ccc(S(C)(=O)=O)cc1C(=O)N1C[C@@H]2C[C@]2(c2cc(C(F)(F)F)on2)C1)C(F)(F)F` [Batch 17103], the “Bulk density” value in series [1] (listed as 17103) was 0.50 g/mL.
Take `C[C@@H](Oc1ccc(S(C)(=O)=O)cc1C(=O)N1C[C@@H]2C[C@]2(c2cc(C(F)(F)F)on2)C1)C(F)(F)F` [Batch 2TB]: the “Bulk density” value in series [1] (listed as 2TB) is listed as 0.2 g/mL.
For `C[C@@H](Oc1ccc(S(C)(=O)=O)cc1C(=O)N1C[C@@H]2C[C@]2(c2cc(C(F)(F)F)on2)C1)C(F)(F)F` [Batch 1098955], the “Bulk density” value in series [1] (listed as 8955) is on record as 0.15 g/mL.
As for `C[C@@H](Oc1ccc(S(C)(=O)=O)cc1C(=O)N1C[C@@H]2C[C@]2(c2cc(C(F)(F)F)on2)C1)C(F)(F)F` [Batch 1099101], in series [1] (listed as 9101), the “Bulk density” value came out at 0.14 g/mL.
With `C[C@@H](Oc1ccc(S(C)(=O)=O)cc1C(=O)N1C[C@@H]2C[C@]2(c2cc(C(F)(F)F)on2)C1)C(F)(F)F` [Batch 18105], in series [1] (listed as 18105), the “Bulk density” value came to 0.12 g/mL.
On to `C[C@@H](Oc1ccc(S(C)(=O)=O)cc1C(=O)N1C[C@@H]2C[C@]2(c2cc(C(F)(F)F)on2)C1)C(F)(F)F` [Batch 3TB], for which the “Bulk density” value in series [1] (listed as 3TB) worked out at 0.17 g/mL.
Turning to `C[C@@H](Oc1ccc(S(C)(=O)=O)cc1C(=O)N1C[C@@H]2C[C@]2(c2cc(C(F)(F)F)on2)C1)C(F)(F)F` [Batch 1099100], the “Bulk density” value in series [1] (listed as 9100) came out at 0.15 g/mL.
As to `C[C@@H](Oc1ccc(S(C)(=O)=O)cc1C(=O)N1C[C@@H]2C[C@]2(c2cc(C(F)(F)F)on2)C1)C(F)(F)F` [polymorph II, [5-(methylsulfonyl)-2-{[(2R)-1,1,1-trifluoropropan-2-yl]oxy}phenyl]{(1R,5R)-1-[5-(trifluoromethyl)-1,2-oxazol-3-yl]-3-azabicyclo[3.1.0]hex-3-yl}methanone], the Water-uptake result in series [2] is given as “about 0.04%”.
`C[C@@H](Oc1ccc(S(C)(=O)=O)cc1C(=O)N1C[C@@H]2C[C@]2(c2cc(C(F)(F)F)on2)C1)C(F)(F)F` [Batch 18106]: the “Bulk density” value in series [1] (listed as 18106) is recorded as 0.15 g/mL.
In the case of `C[C@@H](Oc1ccc(S(C)(=O)=O)cc1C(=O)N1C[C@@H]2C[C@]2(c2cc(C(F)(F)F)on2)C1)C(F)(F)F` [Batch 17104], the “Bulk density” value in series [1] (listed as 17104) was 0.23 g/mL.
As for `C[C@@H](Oc1ccc(S(C)(=O)=O)cc1C(=O)N1C[C@@H]2C[C@]2(c2cc(C(F)(F)F)on2)C1)C(F)(F)F` [Batch 3TA], in series [1] (listed as 3TA), the “Bulk density” value is listed as 0.18 g/mL.
Turning to `C[C@@H](Oc1ccc(S(C)(=O)=O)cc1C(=O)N1C[C@@H]2C[C@]2(c2cc(C(F)(F)F)on2)C1)C(F)(F)F` [amorphous form, [5-(methylsulfonyl)-2-{[(2R)-1,1,1-trifluoropropan-2-yl]oxy}phenyl]{(1R,5R)-1-[5-(trifluoromethyl)-1,2-oxazol-3-yl]-3-azabicyclo[3.1.0]hex-3-yl}methanone], the Water-uptake in series [2] is 1.4%.
`C[C@@H](Oc1ccc(S(C)(=O)=O)cc1C(=O)N1C[C@@H]2C[C@]2(c2cc(C(F)(F)F)on2)C1)C(F)(F)F` [Batch 17102]: the “Bulk density” value in series [1] (listed as 17102) turned out to be 0.35 g/mL.
